Data published in PubChem BioAssay AID1745844 (Carcinogenic Potency Database (CPDB), 2022).
Active and inactive are the calls of the source. How the calls were made is not given here.

Tested on: rodent lifetime carcinogenesis bioassay, tumor incidence TD50
Assay: chronic cancer bioassays in animals – CPDB, compiled studies (AID 1745844)
[1] = mouse, strain B6AKF1, females, oral dosing, site: lung, lesion: adenoma, dosed 76 weeks, study length 76 weeks

For `O=C(O[C@@H]1Cc2c(O)cc(O)cc2O[C@@H]1c1cc(O)c(O)c(O)c1)c1cc(O)c(O)c(O)c1`, the carcinogen call (mouse, strain C3H/HeN, males, in drinking water, site: liver, lesion: several types, types named in the paper, dosed 58 weeks, study length 58 weeks) was “negative (inactive)”.
With `Oc1c(Cl)cc(Cl)cc1Sc1cc(Cl)cc(Cl)c1O` the carcinogen call (mouse, strain B6AKF1, females, oral dosing, site: liver, lesion: hepatoma, dosed 76 weeks, study length 76 weeks) was “negative (inactive)”, the TD50 [1] was 100 mg/kg/day and the carcinogen call [1] was “negative (inactive)”. The carcinogen call (mouse, strain B6AKF1, males, oral dosing, site: any site (literature study), lesion: several types, types named in the paper, dosed 76 weeks, study length 76 weeks) was “negative (inactive)”, the carcinogen call (mouse, strain B6AKF1, males, oral dosing, site: liver, lesion: hepatoma, dosed 76 weeks, study length 76 weeks) was “negative (inactive)” and the carcinogen call (mouse, strain B6AKF1, males, oral dosing, site: lung, lesion: adenoma, dosed 76 weeks, study length 76 weeks) was “negative (inactive)”. For the same compound, the carcinogen call (mouse, strain B6C3F1, females, oral dosing, site: any site (literature study), lesion: one or several types, types not named, dosed 76 weeks, study length 76 weeks) was “negative (inactive)”, the TD50 (mouse, strain B6C3F1, females, oral dosing, site: any site (literature study), lesion: several types, types named in the paper, dosed 76 weeks, study length 76 weeks) was 43 mg/kg/day and the carcinogen call (mouse, strain B6C3F1, females, oral dosing, site: liver, lesion: hepatoma, dosed 76 weeks, study length 76 weeks) was “negative (inactive)”. For the same compound, the carcinogen call (mouse, strain B6C3F1, females, oral dosing, site: lung, lesion: several types, types named in the paper, dosed 76 weeks, study length 76 weeks) was “negative (inactive)”, the TD50 (mouse, strain B6C3F1, males, oral dosing, site: liver, lesion: angioma, dosed 76 weeks, study length 76 weeks) was 88.2 mg/kg/day and the TD50 (mouse, strain B6C3F1, males, oral dosing, site: liver, lesion: several types, types named in the paper, dosed 76 weeks, study length 76 weeks) was 2.28 mg/kg/day (inactive). For the same compound, the TD50 (mouse, strain B6C3F1, males, oral dosing, site: lung, lesion: adenoma, dosed 76 weeks, study length 76 weeks) was 88.2 mg/kg/day and the carcinogen call (mouse, strain B6C3F1, males, oral dosing, site: lung, lesion: several types, types named in the paper, dosed 76 weeks, study length 76 weeks) was “negative (inactive)”.
For `O=[As](O)(O)O`, the TD50 (monkey, strain Cynomolgus [Macaca fascicularis], both sexes, in feed, site: any site (literature study), lesion: benign tumor, dosed 735 weeks, study length 735 weeks) was 0.169 mg/kg/day, the TD50 (monkey, strain Cynomolgus [Macaca fascicularis], both sexes, in feed, site: kidney cortex, lesion: adenoma, dosed 735 weeks, study length 735 weeks) was 0.029 mg/kg/day and the carcinogen call (rat, strain Osborne-Mendel, both sexes, in feed, site: any site (literature study), lesion: malignant tumor, dosed 104 weeks, study length 104 weeks) was “negative (inactive)”. The carcinogen call (rat, strain Osborne-Mendel, both sexes, in feed, site: any site (literature study), lesion: several types, types named in the paper, dosed 104 weeks, study length 104 weeks) was “negative (inactive)”.
`CCN(C#N)N=O` gave a TD50 (rat, strain MRC-Wistar, females, in drinking water, site: any site (literature study), lesion: several types, types named in the paper, dosed 52 weeks, study length 90 weeks) of 3.17 mg/kg/day, a TD50 (rat, strain MRC-Wistar, females, in drinking water, site: respiratory system, lesion: one or several types, types not named, dosed 52 weeks, study length 90 weeks) of 2.91 mg/kg/day and a TD50 (rat, strain MRC-Wistar, males, in drinking water, site: respiratory system, lesion: one or several types, types not named, dosed 52 weeks, study length 90 weeks) of 4.99 mg/kg/day.
`O=NC(=O)CCNCCO` gave a TD50 (hamster, strain Syrian Golden, females, by gavage, site: liver, lesion: cholangioadenoma/carcinoma, dosed 50 weeks, study length 65 weeks) of 2.68 mg/kg/day, a TD50 (hamster, strain Syrian Golden, females, by gavage, site: liver, lesion: cholangiocarcinoma, dosed 50 weeks, study length 65 weeks) of 5.58 mg/kg/day and a TD50 (hamster, strain Syrian Golden, females, by gavage, site: liver, lesion: hepatocellular adenoma, dosed 50 weeks, study length 65 weeks) of 5.58 mg/kg/day. For the same compound, the TD50 (hamster, strain Syrian Golden, females, by gavage, site: liver, lesion: hepatocellular carcinoma/adenoma, dosed 50 weeks, study length 65 weeks) was 3.72 mg/kg/day, the TD50 (hamster, strain Syrian Golden, females, by gavage, site: liver, lesion: several types, types named in the paper, dosed 50 weeks, study length 65 weeks) was 0.997 mg/kg/day and the TD50 (hamster, strain Syrian Golden, females, by gavage, site: lung, lesion: adenoma, dosed 50 weeks, study length 65 weeks) was 31.3 mg/kg/day. For the same compound, the TD50 (hamster, strain Syrian Golden, females, by gavage, site: pancreatic duct, lesion: carcinoma, dosed 50 weeks, study length 65 weeks) was 3.72 mg/kg/day, the TD50 (hamster, strain Syrian Golden, females, by gavage, site: pancreatic duct, lesion: several types, types named in the paper, dosed 50 weeks, study length 65 weeks) was 2.31 mg/kg/day and the TD50 (rat, strain Fischer 344, females, in drinking water, site: liver, lesion: hepatocellular carcinoma, dosed 50 weeks, study length 120 weeks) was 2.7 mg/kg/day. The TD50 (rat, strain Fischer 344, females, in drinking water, site: liver, lesion: neoplastic nodule, dosed 50 weeks, study length 120 weeks) was 2.7 mg/kg/day and the TD50 (rat, strain Fischer 344, females, in drinking water, site: liver, lesion: several types, types named in the paper, dosed 50 weeks, study length 120 weeks) was 1.8 mg/kg/day.
